Results published in PubChem BioAssay (NCI).
“And” between values parts separate entries of the source, which are not always exact repeats. Equal entries are not always repeated.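 Compound exposure: 48 hours, 5 concentrations, 96-well plates. GI50 = concentration required for 50% inhibition of growth. TGI: concentration producing complete growth inhibition.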

Assays:
Experiment in all cases: inhibition of tumour cell growth, NCI panel, 48 h
786-0 renal = tested on: 786-0 renal
SF-539 CNS = tested on: SF-539 CNS
SF-295 CNS = tested on: SF-295 CNS
SW-620 colon = tested on: SW-620 colon
TK-10 renal = tested on: TK-10 renal
SK-MEL-2 melanoma = tested on: SK-MEL-2 melanoma
MOLT-4 leukemia = tested on: MOLT-4 leukemia
K-562 leukemia = tested on: K-562 leukemia
SK-MEL-5 melanoma = tested on: SK-MEL-5 melanoma
BT-549 breast = tested on: BT-549 breast

| SMILES | TGI (786-0 renal) | TGI (SF-539 CNS) | TGI (SF-295 CNS) | TGI (SW-620 colon) [µM] | TGI (TK-10 renal) | TGI (SK-MEL-2 melanoma) | TGI (MOLT-4 leukemia) [µM] | TGI (K-562 leukemia) [µM] | TGI (SK-MEL-5 melanoma) | GI50 (786-0 renal) [µM] | GI50 (SF-539 CNS) [µM] | GI50 (BT-549 breast) [µM] | TGI (BT-549 breast) [µM] | GI50 (SF-295 CNS) [µM] | GI50 (SW-620 colon) [µM] | GI50 (SK-MEL-2 melanoma) [µM] | GI50 (MOLT-4 leukemia) [µM] | GI50 (K-562 leukemia) [µM] | GI50 (SK-MEL-5 melanoma) [µM] | GI50 (TK-10 renal) [µM] |
| --- | --- | --- | --- | --- | --- | --- | --- | --- | --- | --- | --- | --- | --- | --- | --- | --- | --- | --- | --- | --- |
| COc1cc(C=O)c(-c2cc3c(cc2C2(C)OCCS2)OCO3)c(OC)c1OC (centres undefined) | 23.6 µM | 17.4 µM | 48 µM | 39.6 | > 205 µM | 47.7 µM | > 239 | > 239 | 35.3 µM |  |  |  |  |  |  |  |  |  |  |  |
| CN(C(=O)C12C3(C(=O)C(C)(C)C)C4C5(C#N)C3C1(C(=O)C(C)(C)C)C5C42C(=O)C(C)(C)C)C(C)(C)C (centres undefined) | > 50 µM | > 50 µM | > 50 µM | > 50 | > 50 µM |  | > 50 | > 50 | > 50 µM |  |  |  |  |  |  |  |  |  |  |  |
| O=C(O)C(C(=O)C(=O)C(C(=O)O)c1ccc(Cl)cc1)c1ccc(Cl)cc1 (centres undefined) | 15.7 µM | 4.6 µM | 20.8 µM | 13.5 | 12.3 µM |  | 5 | 10.7 |  |  |  |  |  |  |  |  |  |  |  |  |
| CCCCN=C(NC#N)N(Cc1ccccc1)Cc1ccccc1 | > 100 µM | 48.2 µM | 63.2 µM | 30.4 | > 100 µM | 36.8 µM | 48.5 | 88.1 | 26.1 µM |  |  |  |  |  |  |  |  |  |  |  |
| O=c1cc(-c2ccccc2)nc(/C=C(\O)c2ccncc2)n1-c1ccccc1 | > 100 µM | > 100 µM | > 100 µM | > 100 | > 100 µM | > 100 µM |  | > 100 | > 100 µM |  |  |  |  |  |  |  |  |  |  |  |
| CN1CCN(C(=O)c2c(NC(=O)NS(=O)(=O)c3ccccc3)sc3c2CCCCC3)CC1 | 53 µM | 69.9 µM | > 100 µM | > 100 |  | > 100 µM | > 100 | > 100 | 40.2 µM | 19.2 | 29.7 | 26.3 | 98.6 | 57.2 | 43.9 | 60.3 | > 100 | 33.6 | 20.5 |  |
| NC(=O)C(=Cc1ccc(CP(=O)(O)O)cc1)C(N)=O | > 100 µM | > 100 µM | > 100 µM | > 100 | > 100 µM | > 100 µM | > 100 | > 100 | > 100 µM |  |  |  |  |  |  |  |  |  |  |  |
| CN(C)C(=S)/N=c1\ss/c(=N\C(=S)N(C)C)n1-c1ccc(Cl)cc1 | > 100 µM | > 100 µM | > 100 µM | > 100 | > 100 µM | > 100 µM | > 100 | > 100 |  |  |  |  |  |  |  |  |  |  |  |  |
| NC(CC(=O)Nc1ccc(Cl)cc1)=Nc1ccccc1 | > 100 µM | > 100 µM | > 100 µM | > 100 | > 100 µM | > 100 µM | > 100 | > 100 | > 100 µM |  |  |  |  |  |  |  |  |  |  |  |
| COC(=O)c1ccc(NC(=O)c2cc(OC)c(OC)c(OC)c2)cc1 | > 100 µM | 5.5 µM | > 100 µM | > 100 | > 100 µM | > 100 µM | > 100 | 12 |  |  |  |  |  |  |  |  |  |  |  |  |
| CC(C)N1CCC2(CC1)NNc1ncccc1-n1cccc12 | > 100 µM | > 100 µM | > 100 µM | > 100 | > 100 µM | > 100 µM | > 100 | > 100 | > 100 µM |  |  |  |  |  |  |  |  |  |  |  |
| CC(=O)OC(C)(C)/C=C/C(=O)[C@](C)(O)[C@H]1[C@H](O)C[C@@]2(C)[C@@H]3CC=C4[C@@H](C[C@H](O)C(=O)C4(C)C)[C@]3(CO)C(=O)C[C@]12C | 0.889 µM and 0.475 µM | 0.658 µM and 0.472 µM | 0.772 µM and 1.64 µM | 20 | 0.318 µM and 0.512 µM | 0.416 µM and 0.104 µM | 58.3 | 29.5 | 0.894 µM and 1.33 µM | 0.2 | 0.173 |  |  |  | 0.159 | 0.0339 |  | 0.164 | 0.171 | 0.251 |
| CCOC(=O)c1cc2c(cn1)[nH]c1cccc(N)c12 | > 100 µM | > 100 µM | > 100 µM | > 100 | > 100 µM |  | > 100 | > 100 | > 100 µM |  |  |  |  |  |  |  |  |  |  |  |
| N#Cc1ccc(C2C3=C(CCCC3=O)OC3=C2C(=O)c2ccccc2C3=O)cc1 (centres undefined) | 3.76 µM | 3.06 µM | 3.9 µM | 5.69 |  | 3.33 µM | 5.53 |  | 3.25 µM | 1.87 | 1.69 | 1.56 | 2.92 | 1.83 | 2.21 | 1.35 | 1.63 |  | 1.72 |  |
| Nc1nc(NC2C=C(CO)C(O)C2O)c([N+](=O)[O-])c(=O)[nH]1 (centres undefined) | > 100 µM | > 100 µM | > 100 µM | > 100 | > 100 µM | > 100 µM | > 100 | > 100 | > 100 µM |  |  |  |  |  |  |  |  |  |  |  |
| O=c1cc(-c2ccccc2)[nH]c2c(Cl)cccc12 | > 100 µM | 41.7 µM | 58.5 µM | > 100 | > 100 µM | > 100 µM | > 100 | > 100 | 45.4 µM |  |  |  |  |  |  |  |  |  |  |  |
| COc1cc(F)cc([C@@H](CO)NC(=O)[C@@H](C)N2Cc3ccc(-c4nc(NC5CCOCC5)ncc4Cl)cc3C2=O)c1 | > 100 µM | 33.9 µM | 85.4 µM | > 100 | > 76.8 µM |  | 34.1 | > 100 | 14.8 µM | 9.23 | 5.33 | 5.43 | 24.3 | 14.7 | 0.0761 |  | 7.42 | 0.536 | 0.405 | 0.0624 |
| Cc1ccc(C(=O)/C(=C\c2ccc([N+](=O)[O-])cc2)S(=O)Cc2ccc(F)cc2)cc1 (centres undefined) | 2.68 µM | 3.29 µM | 5.05 µM | 3.26 | 3.28 µM | 5.2 µM | 5.58 |  | 3.32 µM | 1.37 | 1.72 | 1.52 | 2.88 | 1.94 | 1.56 | 2.1 | 1.3 |  | 1.76 | 1.72 |
| CCOc1ccccc1N1C(=O)C(=O)C(c2nc3ccccc3o2)/C(=N\N)C1=O (centres undefined) | > 100 µM | > 100 µM | > 100 µM | > 100 | > 100 µM | > 100 µM |  | > 100 | > 100 µM |  |  |  |  |  |  |  |  |  |  |  |
